Data taken from patent US12209072B2, “Cyclopentyl acids as LPA antagonists” (BRISTOL-MYERS SQUIBB COMPANY, priority 2018, dated 2025).

Columns and labels:
[1] = target: T1, human LPA1 (Homo sapiens, UniProt Q92633); assay: LPA1 functional antagonist assay (LPA-induced calcium flux); format: cell-based; conditions: CHO cells overexpressing human LPA1; inhibition of calcium flux induced by 10 nM LPA; read-out: hLPA1 IC50
T1 construct: expressed in transfected cells; host or cells: Chinese hamster ovary (CHO) cells
T1 sequence (Q92633 whole entry): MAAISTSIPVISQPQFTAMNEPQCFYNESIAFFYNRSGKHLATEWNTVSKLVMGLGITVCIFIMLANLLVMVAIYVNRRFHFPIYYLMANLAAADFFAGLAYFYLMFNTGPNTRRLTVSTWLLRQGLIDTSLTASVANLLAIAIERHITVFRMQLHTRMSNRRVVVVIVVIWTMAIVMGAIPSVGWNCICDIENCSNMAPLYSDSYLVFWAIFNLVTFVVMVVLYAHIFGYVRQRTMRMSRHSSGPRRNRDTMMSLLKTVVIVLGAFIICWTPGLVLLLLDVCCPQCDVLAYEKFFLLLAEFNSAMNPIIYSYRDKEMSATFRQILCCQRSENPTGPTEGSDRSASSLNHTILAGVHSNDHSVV
Procedure, shortened: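 CHO cells overexpressing human LPA1, loaded with calcium dye, given compound (0.08 nM–5 μM final, 0.5% DMSO) for 20 min at room temperature in HBSS/HEPES with 0.1% fatty-acid-free BSA, then stimulated with 10 nM LPA. IC50 defined as 50% inhibition of LPA-induced calcium flux, from 4-parameter logistic fit.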

[2] = test system: nerve-injured mice; conditions: pretreatment; cited from earlier work
[3] = test system: highly peritoneal metastatic pancreatic cancer cell line; conditions: cited from earlier work
[4] = test system: pancreatic cancer cell lines; conditions: cited from earlier work
[5] = test system: mouse epithelial renal cell line, MCT; conditions: co-treatment with LPA, MCT cells; cited from earlier work
[6] = test system: UUO mice; conditions: compared with LPA1 (-/-) mice; cited from earlier work
[7] = test system: human foetal lung fibroblasts; conditions: cited from earlier work

With `Cc1nc(-c2nnn(C)c2COC(=O)N(C)CC2CCC2)ccc1O[C@H]1CC[C@H](CC(=O)O)C1` (single isomer, unassigned) [Example 49, (±)-trans-2-[3-({6-[5-({[(cyclobutyl-methyl)(methyl)carbamoyl]oxy}methyl)-1-methyl-1H-1,2,3-triazol-4-yl]-2-methylpyridin-3-yl}oxy)cyclopentyl]acetic acid] the IC50 [1] was 13 nM.

`Cc1nc(-c2nnn(C)c2COC(=O)N(C)CC2CCC2)ccc1O[C@H]1CC[C@H](C(=O)O)C1` (single isomer, unassigned) [Example 78, Trans-(1,3)-3-({6-[5-({[(cyclobutyl-methyl)(methyl)carbamoyl]oxy}methyl)-1-methyl-1H-1,2,3-triazol-4-yl]-2-methylpyridin-3-yl}oxy)cyclopentane-1-carboxylic acid] gave an IC50 [1] of 28 nM.

`Cc1nc(-c2nnn(C)c2COC(=O)N(C)CC2CCC2)ccc1O[C@H]1CC[C@H](C(=O)O)C1` (single isomer, unassigned) [Example 79, Trans-(1,3)-3-({6-[5-({[(cyclobutyl-methyl) (methyl)carbamoyl]oxy}methyl)-1-methyl-1H-1,2,3-triazol-4-yl]-2-methylpyridin-3-yl}oxy)cyclo-pentane-1-carboxylic acid] gave an IC50 [1] of 670 nM.

Molecule `Cc1noc(-c2ccc(OC3CCC(C(=O)O)C3)cn2)c1CNc1nccc(-c2ccccc2)n1` (stereo not shown) [Example 42, 3-((6-(3-methyl-4-(((4-phenylpyrimidin-2-yl)amino)methyl)isoxazol-5-yl)pyridin-3-yl)oxy)cyclopentane-1-carboxylic Acid] has an IC50 [1] of 26 nM.

In the case of `C[C@@H](N)[C@H]1CC[C@H](C(=O)Nc2ccncc2)CC1` [Example Y-27632], the allodynia and hyperalgesia [2] is given as “completely abolished”.

For `Cc1noc(-c2ccc(CSCCC(=O)O)cc2)c1NC(=O)OC(C)c1ccccc1Cl` (stereo not shown) [Ki16425], the “LPA-induced and ascites-induced invasion activity” value [3] is given as “blocked”, the “in vitro migration in response to LPA and peritoneal fluid (ascites) from pancreatic cancer patients” value [4] is given as “effectively blocked” and the “LPA-induced increase in expression of the profibrotic cytokine CTGF” value [5] is given as “almost completely suppressed”. The “development of renal fibrosis in UUO mice” value [6] was “closely resembled the profile of LPA1 (−/−) mice” and the “chemotaxis of human foetal lung fibroblasts induced by BAL obtained from IPF patients” value [7] was “blocked”.
